Consider 17 compounds from PubChem BioAssay AID248 (DTP/NCI, 2004).

Inconclusive results and toxic doses are left out.

This test concerns L1210 leukemia ip in BDF1 mice, survival T/C. The test is described as follows: NCI In Vivo Anticancer Drug Screen. Data for tumor model L1210 Leukemia (intraperitoneal) in B6D2F1 (BDF1) mice. To be noted: endpoint: mean survival time, higher = longer survival. In outline: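 Antitumor effect is assessed in tumor-bearing animals. Survival in the compound arm is compared with a vehicle-dosed control arm and expressed as their quotient.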

Where [1] appears, read: dose: 100.0 mg/kg/injection, schedule: Q01DX001 (ip), vehicle: saline.
Where [2] appears, read: dose: 200.0 mg/kg/injection, schedule: Q01DX001 (ip), vehicle: saline.
Setting [3] is: dose: 400.0 mg/kg/injection, schedule: Q01DX001 (ip), vehicle: saline.
Where [4] appears, read: dose: 100.0 mg/kg/injection, schedule: Q04DX003 (ip), vehicle: saline with Tween-80.
Setting [5] is: dose: 200.0 mg/kg/injection, schedule: Q04DX003 (ip), vehicle: saline with Tween-80.
[6] abbreviates: dose: 400.0 mg/kg/injection, schedule: Q04DX003 (ip), vehicle: saline with Tween-80.
The mark [7] stands for this setting: dose: 100.0 mg/kg/injection, schedule: Q04DX003 (ip), vehicle: Klucel (hydroxypropylcellulose) (HPC).
Where [8] appears, read: dose: 200.0 mg/kg/injection, schedule: Q04DX003 (ip), vehicle: Klucel (hydroxypropylcellulose) (HPC).
[9] abbreviates: dose: 400.0 mg/kg/injection, schedule: Q04DX003 (ip), vehicle: Klucel (hydroxypropylcellulose) (HPC).
Where [10] appears, read: dose: 100.0 mg/kg/injection, schedule: Q01DX009 (ip), vehicle: saline with Tween-80.
Where [11] appears, read: dose: 200.0 mg/kg/injection, schedule: Q01DX009 (ip), vehicle: saline with Tween-80.
The mark [12] stands for this setting: dose: 100.0 mg/kg/injection, schedule: Q01DX009 (ip), vehicle: other.

In the case of `CC(=O)CC(C)=NCCN=C(C)CC(C)=O.[Cu]`, the T/C was 97 % of control (dose: 6.0 mg/kg/injection, schedule: Q01DX009 (ip), vehicle: saline with Tween-80); 98 % of control (dose: 12.0 mg/kg/injection, schedule: Q01DX009 (ip), vehicle: saline with Tween-80); 94 % of control (dose: 12.5 mg/kg/injection, schedule: Q01DX001 (ip), vehicle: saline with Tween-80); 93 % of control (dose: 12.5 mg/kg/injection, schedule: Q04DX003 (ip), vehicle: saline with Tween-80); 91 % of control (dose: 25.0 mg/kg/injection, schedule: Q01DX001 (ip), vehicle: saline with Tween-80); 101 % of control (dose: 25.0 mg/kg/injection, schedule: Q01DX009 (ip), vehicle: saline with Tween-80). The T/C by setting is: (dose: 25.0 mg/kg/injection, schedule: Q04DX003 (ip), vehicle: saline with Tween-80) 100 % of control; (dose: 50.0 mg/kg/injection, schedule: Q01DX001 (ip), vehicle: saline with Tween-80) 91 % of control; (dose: 50.0 mg/kg/injection, schedule: Q04DX003 (ip), vehicle: saline with Tween-80) 88 % of control.
Take `C=C(CCCC)CNCCOC(=O)c1ccc([N+](=O)[O-])cc1`: the T/C is 98 % of control (dose: 12.5 mg/kg/injection, schedule: Q04DX003 (ip), vehicle: saline); 93 % of control (dose: 25.0 mg/kg/injection, schedule: Q04DX003 (ip), vehicle: saline); 100 % of control (dose: 50.0 mg/kg/injection, schedule: Q04DX003 (ip), vehicle: saline).
Turning to `COC(=O)c1ccccc1N(Cc1ccc(OC)c(OC)c1)S(=O)(=O)c1ccc(C)cc1`, the T/C under setting [1] was 95 % of control, the T/C under setting [2] is 91 % of control and the T/C under setting [3] is 91 % of control.
`CCN(CC)P(=O)(OCC(C)C(C)=O)N(CCCl)CCCl` (centres undefined): the T/C reads like this: (dose: 100.0 mg/kg/injection, schedule: Q04DX003 (ip), vehicle: DMSO) 115 % of control; (dose: 200.0 mg/kg/injection, schedule: Q04DX003 (ip), vehicle: DMSO) 113 % of control; (dose: 400.0 mg/kg/injection, schedule: Q04DX003 (ip), vehicle: DMSO) 112 % of control.
For `C=CCNC(=O)Nc1cccc(O)c1`, the T/C runs as follows: under setting [4], 100 % of control; under setting [5], 96 % of control; under setting [6], 93 % of control.
For `CCOC1(OCC)CCC2(CC1)c1ccccc1-c1ccccc12`, the T/C is, setting by setting: under setting [7], 92 % of control; under setting [8], 93 % of control; under setting [9], 95 % of control.
For `O=[N+]([O-])c1ccc(/C=C/C=C/c2ccccc2)cc1`, the T/C under setting [10] was 105 % of control; the T/C under setting [11] is 92 % of control; the T/C (dose: 400.0 mg/kg/injection, schedule: Q01DX009 (ip), vehicle: saline with Tween-80) was 89 % of control.
Take `CC(C)(C#N)CCCCC(C)(C)C#N`: the T/C runs as follows: (dose: 50.0 mg/kg/injection, schedule: Q01DX001 (ip), vehicle: saline) 105 % of control; under setting [1], 108 % of control; under setting [2], 102 % of control; under setting [3], 100 % of control.
Regarding `NC(CCc1cc(O)ccc1O)C(=O)O` (centres undefined), the T/C (dose: 100.0 mg/kg/injection, schedule: Q04DX003 (ip), vehicle: saline) was 105 % of control; the T/C (dose: 200.0 mg/kg/injection, schedule: Q04DX003 (ip), vehicle: saline) is 107 % of control; the T/C (dose: 400.0 mg/kg/injection, schedule: Q04DX003 (ip), vehicle: saline) is 98 % of control.
`CC1=NCCc2c1cc1c([nH]c3ccccc31)c2C`: the T/C runs as follows: (dose: 14.0 mg/kg/injection, schedule: Q01DX Z (ip), vehicle: carboxymethylcellulose (CMC)) 106 % of control; (dose: 28.0 mg/kg/injection, schedule: Q01DX Z (ip), vehicle: carboxymethylcellulose (CMC)) 107 % of control; (dose: 44.0 mg/kg/injection, schedule: Q01DX009 (ip), vehicle: other) 121 % of control; (dose: 44.0 mg/kg/injection, schedule: Q01DX009 (ip), vehicle: saline with Tween-80) 115 % of control; (dose: 50.0 mg/kg/injection, schedule: Q01DX009 (ip), vehicle: saline with Tween-80) 101 % of control; (dose: 56.0 mg/kg/injection, schedule: Q01DX Z (ip), vehicle: carboxymethylcellulose (CMC)) 113 % of control. Moreover, the T/C by setting is: under setting [12], 151 % of control; under setting [10], 151 % of control; (dose: 100.0 mg/kg/injection, schedule: Q04DX003 (ip), vehicle: acetone) 110 % of control; under setting [4], 110 % of control; (dose: 112.0 mg/kg/injection, schedule: Q01DX Z (ip), vehicle: carboxymethylcellulose (CMC)) 123 % of control; (dose: 150.0 mg/kg/injection, schedule: Q01DX009 (ip), vehicle: saline with Tween-80) 178 % of control. Further, the T/C (dose: 177.0 mg/kg/injection, schedule: Q04DX003 (ip), vehicle: saline with Tween-80) was 122 % of control; the T/C under setting [11] was 101 % of control; the T/C (dose: 200.0 mg/kg/injection, schedule: Q04DX003 (ip), vehicle: acetone) was 102 % of control; the T/C under setting [5] is 115 % of control; the T/C (dose: 210.0 mg/kg/injection, schedule: Q01DX009 (ip), vehicle: other) was 98 % of control; the T/C (dose: 266.0 mg/kg/injection, schedule: Q04DX003 (ip), vehicle: saline with Tween-80) was 124 % of control.
With `CCOC(=O)c1cnc(SC)nc1NNc1nc(SC)ncc1C(=O)OCC`, the T/C is, setting by setting: under setting [7], 93 % of control; under setting [8], 90 % of control; under setting [9], 93 % of control.
Regarding `CCOC(=O)c1cnc(SC)nc1NCc1ccccc1C`, the T/C under setting [4] is 94 % of control, the T/C under setting [5] was 94 % of control and the T/C under setting [6] was 92 % of control.
Turning to `NC(=S)Nc1ccccc1`, the T/C by setting is: (dose: 5.0 mg/kg/injection, schedule: Q01DX001 (ip), vehicle: saline) 100 % of control; (dose: 10.0 mg/kg/injection, schedule: Q01DX001 (ip), vehicle: saline) 96 % of control; (dose: 20.0 mg/kg/injection, schedule: Q01DX001 (ip), vehicle: saline) 102 % of control; (dose: 40.0 mg/kg/injection, schedule: Q01DX001 (ip), vehicle: saline) 101 % of control; (dose: 80.0 mg/kg/injection, schedule: Q01DX001 (ip), vehicle: saline) 97 % of control.
Take `Cc1ccc(-n2c(N)cc(=O)[nH]c2=S)nc1`: the T/C is, setting by setting: (dose: 100.0 mg/kg/injection, schedule: Q04DX002 (ip), vehicle: saline) 96 % of control; (dose: 200.0 mg/kg/injection, schedule: Q04DX002 (ip), vehicle: saline) 100 % of control; (dose: 400.0 mg/kg/injection, schedule: Q04DX002 (ip), vehicle: saline) 107 % of control.
On to `CNC(=O)OCCOC(=O)NC`, for which the T/C (dose: 100.0 mg/kg/injection, schedule: Q01DX001 (ip), vehicle: other) was 98 % of control; the T/C under setting [12] is 96 % of control; the T/C (dose: 100.0 mg/kg/injection, schedule: Q04DX003 (ip), vehicle: other) is 102 % of control; the T/C (dose: 200.0 mg/kg/injection, schedule: Q01DX001 (ip), vehicle: other) is 109 % of control; the T/C (dose: 200.0 mg/kg/injection, schedule: Q01DX009 (ip), vehicle: other) was 102 % of control; the T/C (dose: 200.0 mg/kg/injection, schedule: Q04DX003 (ip), vehicle: other) was 97 % of control. Also, the T/C is 98 % of control (dose: 400.0 mg/kg/injection, schedule: Q01DX001 (ip), vehicle: other); 89 % of control (dose: 400.0 mg/kg/injection, schedule: Q01DX009 (ip), vehicle: other); 111 % of control (dose: 400.0 mg/kg/injection, schedule: Q04DX003 (ip), vehicle: other).
Consider `O=c1[nH]c(=O)n(O)c2nc[nH]c12`, for which the T/C under setting [4] is 92 % of control.
In the case of `CC1(C)SC2C(NC(=O)COc3ccccc3)C(=O)N2C1C(=O)O` (centres undefined) (tested in a mixture with another compound), the T/C under setting [4] is 101 % of control, the T/C under setting [5] was 103 % of control and the T/C under setting [6] is 97 % of control.
